Results: PubChem BioAssay (NCI)
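Compound exposure: 48 hours, 5 concentrations, 96-well plates. GI50 is the concentration that inhibits growth by half. The concentration for full growth arrest is given as TGI.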

Columns and labels:
Assay in all cases: inhibition of tumour cell growth, NCI panel, 48 h
A549 NSCLC = system: A549 NSCLC
CAKI-1 renal = system: CAKI-1 renal
HCT-15 colon = system: HCT-15 colon
OVCAR-5 ovarian = system: OVCAR-5 ovarian
UACC-62 melanoma = system: UACC-62 melanoma
HS 578T breast = system: HS 578T breast
NCI-H522 lung = system: NCI-H522 lung
NCI/ADR-RES ovarian = system: NCI/ADR-RES ovarian
T-47D breast = system: T-47D breast
OVCAR-4 ovarian = system: OVCAR-4 ovarian

| Structure (SMILES) | TGI (A549 NSCLC) | TGI (CAKI-1 renal) | TGI (HCT-15 colon) | TGI (OVCAR-5 ovarian) | TGI (UACC-62 melanoma) | GI50 (A549 NSCLC) | GI50 (CAKI-1 renal) | GI50 (HCT-15 colon) | GI50 (HS 578T breast) | TGI (HS 578T breast) | GI50 (NCI-H522 lung) | TGI (NCI-H522 lung) | GI50 (NCI/ADR-RES ovarian) | TGI (NCI/ADR-RES ovarian) | GI50 (T-47D breast) | TGI (T-47D breast) | GI50 (UACC-62 melanoma) | TGI (OVCAR-4 ovarian) | GI50 (OVCAR-4 ovarian) | GI50 (OVCAR-5 ovarian) |
| --- | --- | --- | --- | --- | --- | --- | --- | --- | --- | --- | --- | --- | --- | --- | --- | --- | --- | --- | --- | --- |
| O=C(N/N=C(/c1nc2ccc(Cl)cc2[nH]c1=O)C(O)c1ccc(Cl)cc1Cl)c1ccncc1 (stereo unspecified) | > 100 µM | > 100 µM | > 100 µM | > 100 µM | > 100 µM | – | – | – | – | – | – | – | – | – | – | – | – | – | – | – |
| CCOC(=O)c1sc(-c2ccc(OS(=O)(=O)c3cccs3)c(C=O)c2)nc1C | 6.72 µM | 3.94 µM | 2.13 µM | – | 2.92 µM | 2.3 µM | 1.31 µM | 0.561 µM | 2.1 µM | 5.3 µM | 1.51 µM | 3.43 µM | 1.8 µM | 6.17 µM | 1.21 µM | 5.02 µM | 1.43 µM | – | – | – |
| Cn1cnc([N+](=O)[O-])c1Sc1ccccn1 | > 100 µM | > 100 µM | – | > 100 µM | > 100 µM | – | – | – | – | – | – | > 100 µM | – | – | – | – | – | > 100 µM | – | – |
| COc1ccc(/C=C/c2c(C(=O)/C=C/c3ccc(Cl)cc3)c(C)nc3ccccc23)cc1 | 9.6 µM | 2.62 µM | 4.13 µM | 4.98 µM | 3.28 µM | 2.69 µM | 1.14 µM | 1.29 µM | – | – | 1.59 µM | 4.62 µM | 2.11 µM | 5.61 µM | 1.7 µM | 5.72 µM | 1.59 µM | 3.97 µM | 1.75 µM | 2.08 µM |
| COC(=O)c1c[nH]c(=O)[nH]c1=O | > 100 µM | > 100 µM | > 100 µM | > 100 µM | > 100 µM | – | – | – | – | > 100 µM | – | > 100 µM | – | > 100 µM | – | > 100 µM | – | – | – | – |
| C=C(C=O)C1CC(=O)C(C(=O)OC)[C@@H]2O[C@@](C)(CC2=O)C[C@@H]2OC(=O)[C@]3(O[C@@H]23)[C@@H](C(=O)OC)C1 (stereo partly specified) | 67.1 µM | – | 38.5 µM | 51.2 µM | 44.8 µM | 29 µM | – | 16.2 µM | 32.8 µM | > 100 µM | 7.03 µM | 41.5 µM | 46.4 µM | > 100 µM | 33.7 µM | > 100 µM | 18.1 µM | 92.4 µM | 30 µM | 23.1 µM |
| CCC1C(C)c2c([nH]c3ccccc23)C2C(=O)N(c3ccccc3)C(=O)C21 (stereo unspecified) | 48.5 µM | – | 31.2 µM | – | 21.9 µM | – | – | – | – | – | – | – | – | – | – | – | – | 38 µM | – | – |
| O=NC1c2cccc3cccc(c23)C1N=O (stereo unspecified) | 17 µM | 10.8 µM | 5.02 µM | 9.11 µM | – | – | – | – | – | 75.7 µM | – | 9.14 µM | – | 7.21 µM | – | > 100 µM | – | 3.56 µM | – | – |
| Cc1ccc(S(=O)(=O)N(/N=C(\N)Oc2ccc(Cl)cc2)C(=N)Oc2ccc(Cl)cc2)cc1 | > 100 µM | > 100 µM | > 100 µM | > 100 µM | > 100 µM | – | – | – | – | – | – | > 100 µM | – | – | – | – | – | > 100 µM | – | – |
| O=C(CC(=O)N1N=C(c2ccccc2)C(N=Nc2ccc(C(=O)O)cc2)C1=O)Nc1ccc(F)cc1 (stereo unspecified) | > 100 µM | > 100 µM | > 100 µM | > 100 µM | 42.8 µM | – | – | – | – | – | – | 33.3 µM | – | – | – | – | – | > 100 µM | – | – |
| Cn1c2ccccc2c(=Nc2ccccc2)c2c3ccccc3[nH]c21 | – | 2.05 µM | 3.49 µM | 59.9 µM | 2.01 µM | – | 0.78 µM | 1.51 µM | 1.46 µM | 4.58 µM | 2.29 µM | > 100 µM | 6.75 µM | 61.2 µM | 3.91 µM | > 100 µM | 0.696 µM | 22 µM | 5.41 µM | 7.6 µM |
| Cc1nc(C)c(C(=O)Nc2cccc3c2C(=O)NC3=O)cc1C(=O)Nc1cccc2c1C(=O)NC2=O | > 100 µM | > 100 µM | > 100 µM | > 100 µM | > 100 µM | – | – | – | – | – | – | > 100 µM | – | – | – | – | – | > 100 µM | – | – |
| N/C(=N\NS(=O)(=O)c1ccccc1)Oc1ccc(Cl)cc1 | > 100 µM | > 100 µM | > 100 µM | > 100 µM | > 100 µM | – | – | – | – | – | – | > 100 µM | – | – | – | – | – | > 100 µM | – | – |
| COc1ccc(SC2c3cc(OC)c(OC)cc3Oc3nc(N)c(C#N)c(N)c32)cc1 (stereo unspecified) | – | – | 2.23 µM | 3.39 µM | 1.74 µM | – | – | 0.973 µM | – | – | 1.37 µM | 2.77 µM | – | – | 1.3 µM | 3.31 µM | 0.449 µM | 2.73 µM | 1.33 µM | 1.75 µM |
| O=C(c1cc(O)ccc1O)c1ccccc1C(Cl)(Cl)Cl | > 100 µM | > 100 µM | > 100 µM | > 100 µM | > 100 µM | – | – | – | – | – | – | > 100 µM | – | – | – | – | – | > 100 µM | – | – |
| COc1ccc(C2OC(=O)c3c2ccc2ccccc32)c(C)c1 (stereo unspecified) | 73.4 µM | – | 19.9 µM | > 100 µM | 90.5 µM | – | – | – | – | > 100 µM | – | – | – | – | – | – | – | – | – | – |
| N#Cc1cccc(NC(=O)c2ccc(C(=O)O)c(C(=O)c3ccc(C(=O)O)c(C(=O)Nc4cccc(C#N)c4)c3)c2)c1 | > 100 µM | > 100 µM | > 100 µM | > 100 µM | > 100 µM | – | – | – | – | – | – | > 100 µM | – | – | – | – | – | > 100 µM | – | – |
| C=C(CN1CCN(c2ccccc2OC)CC1)c1ccc(C(=O)Nc2ccccc2N)cc1 | 35.5 µM | 14.3 µM | 31.3 µM | 22.8 µM | 6.92 µM | 11.2 µM | 3.86 µM | 2.03 µM | 3.58 µM | > 50 µM | – | – | 0.143 µM | 1.56 µM | 10.8 µM | 45.2 µM | 1.18 µM | 23.6 µM | 3.2 µM | 7.56 µM |
| COc1ccc(-c2nn(-c3cccc(Cl)c3)cc2C=C(C#N)C#N)cc1 | – | – | > 100 µM | 48.4 µM | 10.6 µM | – | – | 3.24 µM | 1.57 µM | 7.04 µM | 2.21 µM | 5.76 µM | 2.49 µM | 7.17 µM | 3.34 µM | 21.8 µM | 2.39 µM | 6.48 µM | 2.29 µM | 3.68 µM |
